Data published in paper PMC12775434, “Ultra-large virtual screening unveils potent agonists of the neuromodulatory orphan receptor GPR139” (Nature Communications, 2025).
Several values for one entry are separate records, joined by “and”; a condition that tells them apart may be missing. Equal values may be shown once. Read-outs that look alike come from different tables or passages of the source.

How the values were obtained:
Type in all cases: cell-based
GPR139 [1] = target: T1, GPR139 (Homo sapiens, UniProt Q6DWJ6); test: Ca2+ mobilization assay, agonist mode, stable GPR139-CHOk1 cell line; details: for Emax: normalized to Lundbeck Cmp 1a, read-out: Emax (%) Ca2+
T1 sequence (Q6DWJ6 1-353): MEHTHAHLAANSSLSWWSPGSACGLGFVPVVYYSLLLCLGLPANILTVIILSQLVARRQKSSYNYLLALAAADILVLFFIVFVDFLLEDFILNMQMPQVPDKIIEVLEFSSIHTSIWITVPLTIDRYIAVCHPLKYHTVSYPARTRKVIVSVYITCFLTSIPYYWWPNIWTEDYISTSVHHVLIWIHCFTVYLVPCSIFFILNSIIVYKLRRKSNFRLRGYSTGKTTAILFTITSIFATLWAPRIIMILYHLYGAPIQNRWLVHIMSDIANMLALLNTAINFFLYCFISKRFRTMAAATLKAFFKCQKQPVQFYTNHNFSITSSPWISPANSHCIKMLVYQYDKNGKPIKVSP
Method in brief: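 Agonist activity of compounds is assessed in stably transfected CHO-K1 cells using the calcium dye Fluo-4 at 37 °C in HEPES-buffered HBSS (pH 7.4). Efficacy is expressed relative to the reference agonist Lundbeck Cmp 1a, set as 100%.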

GPR139 [2] = target: T1, GPR139; test: Ca2+ mobilization assay, antagonist mode (EC80 800 nM Lundbeck Cmp 1a after 20 min preincubation), GPR139-CHOk1; details: individual replicates (Supplementary Figure 4)
Method in brief: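 Fluo-4-loaded GPR139-CHOk1 cells in HEPES-buffered HBSS (pH 7.4, 2.5 mM probenecid) given test compounds at 10 µM, then after 20 min challenged with 800 nM Lundbeck Cmp 1a (EC80). Calcium fluorescence read at 37 °C, 485/525 nm.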

[3] = target: T2, human muscarinic acetylcholine M1 receptor (M1R) (Homo sapiens, UniProt P11229); test: Ca2+ mobilization counter-screen in M1R-CHOk1 cells; details: individual replicates (Supplementary Figure 5)
T2 sequence (P11229 1-460): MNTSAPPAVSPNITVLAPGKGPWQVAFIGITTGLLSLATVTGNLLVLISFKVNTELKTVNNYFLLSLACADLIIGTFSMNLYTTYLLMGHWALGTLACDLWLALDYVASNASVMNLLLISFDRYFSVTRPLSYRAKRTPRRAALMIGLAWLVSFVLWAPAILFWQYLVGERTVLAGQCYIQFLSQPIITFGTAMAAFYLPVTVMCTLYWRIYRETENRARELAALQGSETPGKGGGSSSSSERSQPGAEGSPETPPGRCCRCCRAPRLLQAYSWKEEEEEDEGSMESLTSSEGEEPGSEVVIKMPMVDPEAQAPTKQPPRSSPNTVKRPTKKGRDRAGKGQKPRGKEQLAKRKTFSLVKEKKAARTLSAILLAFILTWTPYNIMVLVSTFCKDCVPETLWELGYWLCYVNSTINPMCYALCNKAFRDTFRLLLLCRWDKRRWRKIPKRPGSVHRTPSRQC
Method in brief: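 Intracellular calcium is tracked by Fluo-4 fluorescence at 37 °C in M1R-CHOk1 cells, with compounds dispensed automatically once baseline is taken. Buffer is HBSS with 20 mM HEPES, pH 7.4, plus 2.5 mM probenecid.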

[4] = Agonist mode, individual replicates (Supplementary Figure 4)
[5] = Supplementary Table 2, mean ± SEM, read-out: pEC50 Ca2+ (converted)
[6] = Supplementary Table 2, mean ± SEM
[7] = log [Compound] M = -4.5, individual replicate columns
[8] = log [Compound] M = -5.0, individual replicate columns
[9] = log [Compound] M = -5.5, individual replicate columns
[10] = log [Compound] M = -6.0, individual replicate columns
[11] = log [Compound] M = -6.5, individual replicate columns
[12] = log [Compound] M = -7.0, individual replicate columns
[13] = log [Compound] M = -7.5, individual replicate columns
[14] = log [Compound] M = -8.0, individual replicate columns
[15] = log [Compound] M = -8.5, individual replicate columns
[16] = log [Compound] M = -9.0, individual replicate columns

Row | fold decrease in potency relative to parent compound 1 (GPR139 [1]; Ca2+ mobilization EC50) | EC50 (GPR139 [1]; [5]) | Emax (GPR139 [1]; [6]) | fold decrease in potency on substitution of the central oxadiazole ring (GPR139 [1]; Ca2+ mobilization) | EC50 (GPR139 [1]; GPR139-CHOk1, read-out: EC50, Ca2+ mobilization) | Structure (SMILES) | Ca2+ signal (% of Cmp 1a) (GPR139 [1]; [4]) | Ca2+ signal (% of Cmp 1a) (GPR139 [1]; [7]) | Ca2+ signal (% of Cmp 1a) (GPR139 [1]; [8]) | Ca2+ signal (% of Cmp 1a) (GPR139 [1]; [9]) | Ca2+ signal (% of Cmp 1a) (GPR139 [1]; [10]) | Ca2+ signal (% of Cmp 1a) (GPR139 [1]; [11]) | Ca2+ signal (% of Cmp 1a) (GPR139 [1]; [12]) | Ca2+ signal (% of Cmp 1a) (GPR139 [1]; [13]) | Ca2+ signal (% of Cmp 1a) (GPR139 [1]; [14]) | Ca2+ signal (% of Cmp 1a) (GPR139 [1]; [15]) | Ca2+ signal (% of Cmp 1a) (GPR139 [1]; [16]) | Ca2+ signal (% of Cmp 1a) (GPR139 [2]) | Ca2+ signal (% of Carbachol) [3]
1 | 3- to 25 fold | 3.98 µM | 90 ± 6% | – | – | Cc1ncc(-c2nc(CC(=O)NC(C)c3ccccc3)no2)s1 (centres unmarked) [Compound 1.34, CC(C1=CC=CC=C1)NC(CC2=NOC(C3=CN=C(S3)C)=N2)=O] | 81 % of Cmp 1a and 51 % of Cmp 1a | 108 % of Cmp 1a and 98 % of Cmp 1a and 84 % of Cmp 1a and 88 % of Cmp 1a | 66 % of Cmp 1a and 94 % of Cmp 1a and 68 % of Cmp 1a and 51 % of Cmp 1a | 43 % of Cmp 1a and 86 % of Cmp 1a and 38 % of Cmp 1a and 21 % of Cmp 1a | 8.56 % of Cmp 1a and 40 % of Cmp 1a and 9.49 % of Cmp 1a and -0.9 % of Cmp 1a | -2.32 % of Cmp 1a and 12 % of Cmp 1a and 4.69 % of Cmp 1a and 1.79 % of Cmp 1a | 3 % of Cmp 1a (2×) and -4 % of Cmp 1a and 10 % of Cmp 1a | 8 % of Cmp 1a and -0.386 % of Cmp 1a and 18 % of Cmp 1a and 3.4 % of Cmp 1a | 15 % of Cmp 1a and -0.802 % of Cmp 1a and 16 % of Cmp 1a and 14 % of Cmp 1a | 6.66 % of Cmp 1a and 2 % of Cmp 1a and 14 % of Cmp 1a and 12 % of Cmp 1a | 1.77 % of Cmp 1a and 8 % of Cmp 1a and 11 % of Cmp 1a and 6 % of Cmp 1a | 33 % of Cmp 1a and 16 % of Cmp 1a and 43 % of Cmp 1a | 0.0525 % of Carbachol and -0.37 % of Carbachol and -1 % of Carbachol
2 | – | 5.01 µM | 101 ± 5% | – | – | COc1ccc(-c2nc(CC(=O)NC(C)c3ccccc3)no2)nc1 (centres unmarked) [Compound 1.35, COC1=CN=C(C2=NC(CC(NC(C3=CC=CC=C3)C)=O)=NO2)C=C1] | 54 % of Cmp 1a and 78 % of Cmp 1a and 29 % of Cmp 1a | 94 % of Cmp 1a and 90 % of Cmp 1a and 98 % of Cmp 1a and 75 % of Cmp 1a | 78 % of Cmp 1a and 80 % of Cmp 1a (2×) and 38 % of Cmp 1a | 47 % of Cmp 1a and 55 % of Cmp 1a and 66 % of Cmp 1a and 27 % of Cmp 1a | 20 % of Cmp 1a and 21 % of Cmp 1a and 51 % of Cmp 1a and 17 % of Cmp 1a | -3 % of Cmp 1a and 8 % of Cmp 1a and 26 % of Cmp 1a and 20 % of Cmp 1a | 1.67 % of Cmp 1a and -1.67 % of Cmp 1a and 26 % of Cmp 1a and 31 % of Cmp 1a | 2.67 % of Cmp 1a and 5.33 % of Cmp 1a and 16 % of Cmp 1a and 34 % of Cmp 1a | -2 % of Cmp 1a and 11 % of Cmp 1a and 29 % of Cmp 1a and 25 % of Cmp 1a | -6 % of Cmp 1a and 3 % of Cmp 1a and 17 % of Cmp 1a and -0.333 % of Cmp 1a | 2 % of Cmp 1a and 4.67 % of Cmp 1a and 12 % of Cmp 1a and -2 % of Cmp 1a | 28 % of Cmp 1a and 18 % of Cmp 1a and 35 % of Cmp 1a | 7 % of Carbachol and 14 % of Carbachol and 10 % of Carbachol
3 | – | – | 82 ± 7% | 7 fold | 1.3 µM | CC(NC(=O)Cn1cc(-c2cccs2)nn1)c1ccccc1 (centres unmarked) [Compound 1.38, CC(NC(=O)CN1C=C(N=N1)C2=CC=CS2)C=3C=CC=CC3] | 54 % of Cmp 1a and 77 % of Cmp 1a and 68 % of Cmp 1a | 92 % of Cmp 1a (2×) and 78 % of Cmp 1a and 67 % of Cmp 1a | 90 % of Cmp 1a and 69 % of Cmp 1a and 85 % of Cmp 1a and 60 % of Cmp 1a | 88 % of Cmp 1a and 51 % of Cmp 1a and 91 % of Cmp 1a and 56 % of Cmp 1a | 56 % of Cmp 1a and 17 % of Cmp 1a and 49 % of Cmp 1a and 18 % of Cmp 1a | 22 % of Cmp 1a and -6 % of Cmp 1a and 11 % of Cmp 1a and 3.64 % of Cmp 1a | 7.61 % of Cmp 1a and -2.54 % of Cmp 1a and 1.82 % of Cmp 1a and 1.21 % of Cmp 1a | 0.854 % of Cmp 1a and 4 % of Cmp 1a and -4.35 % of Cmp 1a and 9 % of Cmp 1a | -1.25 % of Cmp 1a and 0.0327 % of Cmp 1a and -3 % of Cmp 1a and 1.5 % of Cmp 1a | 1 % of Cmp 1a and 0.912 % of Cmp 1a and 6 % of Cmp 1a and 0.231 % of Cmp 1a | 5.27 % of Cmp 1a and -0.036 % of Cmp 1a and 7.38 % of Cmp 1a and 4.27 % of Cmp 1a | 22 % of Cmp 1a and 19 % of Cmp 1a | 0.152 % of Carbachol and 1.48 % of Carbachol and 2 % of Carbachol
